Tested on: low dosed STZ induced diabetic rats
Assay: Antihyperglycaemic activity in low dosed streptozotocin induced diabetic rats (STZ)
Assay type: in vivo, rat
Details: for Blood Glucose Profile 0 min (Pre treatment): 0 min pre treatment (fasting baseline); for Blood Glucose Profile 0 min (Pre treatment) / Blood Glucose Profile 30 min (Post treatment) / Blood Glucose Profile 60 min (Post treatment) / Blood Glucose Profile 90 min (Post treatment) / Blood Glucose Profile 120 min (Post treatment) / Blood Glucose Profile 180 min (Post treatment) / Blood Glucose Profile 240 min (Post treatment) / Blood Glucose Profile 300 min (Post treatment) / Blood Glucose Profile 1440 min (Post treatment) / % Antihyperglycaemic activity STZ 0-5 h AUC / % Antihyperglycaemic activity STZ 0-24 h AUC: low dosed STZ diabetic rats, compounds 100 mg/kg, Januvia 50 mg/kg; for % Antihyperglycaemic activity STZ 0-5 h AUC / % Antihyperglycaemic activity STZ 0-24 h AUC: oral; for lowering in the hyperglycaemia of the diabetic rats: low dosed streptozotocin induced diabetic rats, 100 mg/kg, result in words
Protocol: The test compounds and standard antidiabetic drug Januvia were prepared in 1.0% freshly prepared Gum acacia.
Assessment of Test Compounds for Antihyperglycaemic Activity in Low Dosed Streptozotocin Induced Diabetic Rats—
Induction of Diabetes in Rats:
Overnight starved male albino rats of Sprague Dawley strain were used and Diabetes was induced in the animals by single intraperitoneal injection of Streptozotocin at 60 mg/kg body weight dose prepared in 0.1M citrate buffer (pH 4.5). Fasting blood glucose level was measured by using a Glucometer (ACCU-CHEK II; Roche Diagnostics, USA) after 48 hours and animals showing blood glucose level above 300 mg/di were considered as diabetic.
The diabetic animals were divided into four groups (Group 1 to 4) each consisting 6 rats. Group 1 received 0.4 ml vehicle (1% gum acacia). Group 2 received the test compound 5 at an oral dose of 100 mg/kg/body weight. Group 3 was given compound 6 at an oral dose of 100 mg/kg/body weight. The standard antidiabetic drug Januvia was given to the animals of Group 4 at an oral dose of 50 mg/kg body weight. […] Food but not water was withheld from the cages during the course of experimentation. Percent hyperglycemic activity was determined by comparing the AUC (area under curve) of experimental groups with that of the vehicle treated control group.
Quantitative glucose tolerance of each animal was calculated by the area under the curve (AUC) method using Prism Software. The area under the curve of the control group and the experimental group was compared to determine the percent antihyperglycaemic activity. Statistical comparisons were performed by one-way analysis of variance (ANOVA), followed by Dunnett's multiple range test (DMRT). The results were considered statistically significant if the ‘p’ values were 0.05 or less. Results were expressed as mean±SEM.

**Q.** With `COC(=O)c1c(SC)cc(-c2ccc(C)cc2)c2c1-c1cn(-c3ccccc3)nc1CC2` [compound 5, methyl 8-(methylthio)-2-phenyl-6-p-tolyl-4,5-dihydro-2H-benzo[e]indazole-9-carboxylate] as the compound, how does the “Blood Glucose Profile 0 min (Pre treatment)” value read?
**A.** 346.6 ± 6.19 mg/dL

**Q.** And the “Blood Glucose Profile 30 min (Post treatment)” value?
**A.** 434.2 ± 12.4 mg/dL

**Q.** And the “Blood Glucose Profile 60 min (Post treatment)” value?
**A.** 481.2 ± 11.8 mg/dL

**Q.** And the “Blood Glucose Profile 90 min (Post treatment)” value?
**A.** 447.0 ± 8.16 mg/dL

**Q.** What about the “Blood Glucose Profile 120 min (Post treatment)” value of the same compound?
**A.** 434.8 ± 11.7 mg/dL

**Q.** What about the “Blood Glucose Profile 180 min (Post treatment)” value of the same compound?
**A.** 385.6 ± 5.8 mg/dL

**Q.** And the “Blood Glucose Profile 240 min (Post treatment)” value?
**A.** 353.6 ± 16.4 mg/dL

**Q.** What about the “Blood Glucose Profile 300 min (Post treatment)” value of the same compound?
**A.** 362.4 ± 17.6 mg/dL

**Q.** And the “Blood Glucose Profile 1440 min (Post treatment)” value?
**A.** 483.0 ± 3.95 mg/dL

**Q.** And the “% Antihyperglycaemic activity STZ 0-5 h AUC” value?
**A.** 23.1%

**Q.** What about the “% Antihyperglycaemic activity STZ 0-24 h AUC” value of the same compound?
**A.** 18.2%

**Q.** What about the “lowering in the hyperglycaemia of the diabetic rats” value of the same compound?
**A.** significant lowering in the hyperglycaemia

**Q.** With `COC(=O)c1c(SC)cc(-c2cccc3ccccc23)c2c1-c1cn(-c3ccccc3)nc1CC2` [compound 6, methyl 8-(methylthio)-6-(naphthalen-1-yl)-2-phenyl-4,5-dihydro-2H-benzo[e]indazole-9-carboxylate] as the compound, how does the “Blood Glucose Profile 0 min (Pre treatment)” value read?
**A.** 344.0 ± 3.91 mg/dL

**Q.** What about the “Blood Glucose Profile 30 min (Post treatment)” value of the same compound?
**A.** 444.6 ± 16.6 mg/dL

**Q.** And the “Blood Glucose Profile 60 min (Post treatment)” value?
**A.** 492.0 ± 13.6 mg/dL

**Q.** And the “Blood Glucose Profile 90 min (Post treatment)” value?
**A.** 490.2 ± 11.2 mg/dL

**Q.** What about the “Blood Glucose Profile 120 min (Post treatment)” value of the same compound?
**A.** 474.8 ± 15.0 mg/dL

**Q.** What about the “Blood Glucose Profile 180 min (Post treatment)” value of the same compound?
**A.** 426.0 ± 16.0 mg/dL

**Q.** What about the “Blood Glucose Profile 240 min (Post treatment)” value of the same compound?
**A.** 385.8 ± 15.6 mg/dL

**Q.** What about the “Blood Glucose Profile 300 min (Post treatment)” value of the same compound?
**A.** 355 ± 14.3 mg/dL

**Q.** What about the “Blood Glucose Profile 1440 min (Post treatment)” value of the same compound?
**A.** 442.4 ± 9.64 mg/dL

**Q.** What about the “% Antihyperglycaemic activity STZ 0-5 h AUC” value of the same compound?
**A.** 18.9%

**Q.** And the “% Antihyperglycaemic activity STZ 0-24 h AUC” value?
**A.** 20.1%

**Q.** What about the “lowering in the hyperglycaemia of the diabetic rats” value of the same compound?
**A.** significant lowering in the hyperglycaemia

— patent publication US9096539B2, “Substituted 4,5-dihydro-2H-benzo[e]indazole-9-carboxylates for the treatment of diabetes and related disorders” (Council of Scientific & Industrial Research, priority 2012, dated 2015)
